Measured values as given in patent publication US20160257651A1, “NOVEL COMPOUND WITH ANTIBACTERIAL ACTIVITY” (priority 2013, published 2016).
Converted amounts (≈) assume the structure as drawn. Where two headings read alike, the source gives them in different places.

Experiments:
[1] = tested on: S. aureus MR5867 three-step mutant; assay: MIC against stepwise QRDR mutants; format: cell-based; conditions: Staphylococcus aureus
Text: (§1) In order to further verify that the action site of the compound J-131CP is gyrA, there were examined antibacterial activities against the MRSA, S. aureus MR5867, and stepwise-mutated strains (one-step mutant strain to three-step mutant strain) of S. aureus MR5867 in which mutation was introduced into QRDR, as well as the MSSA, S. aureus MS5952, and stepwise-mutated strains (one-step mutant strain to three-step mutant strain) of S. aureus MS5952 in which mutation was introduced into QRDR (those strains mentioned above are described in Antimicrob. Agents Chemother., 42(8), pp. 1917-1922, 1998) by the following methods. The strains used for this test example are available from the inventors of the present invention.
(§2) The compound J-131CP and quinolones were prepared in the same manner as that of Test Example 1-1.
(§3) Then, the cell suspension was diluted 500 times with CAMHB mentioned above.
(§4) CAMHB containing each of the compound J-131CP and quinolones at each concentration was added to each well of a 96-well plate in a volume of 50 μL/well, the aforementioned cell suspension diluted 500 times was added to the well in a volume of 50 μL/well, and stationary culture was carried out overnight at 37° C. in the same manner as that of Test Example 1-1.

[2] = tested on: S. aureus MR5867 two-step mutant; assay: MIC against stepwise QRDR mutants; format: cell-based; conditions: Staphylococcus aureus
Text: as §1, §2, §3, §4

S. aureus MR5867 = assay: MIC against stepwise QRDR mutants; format: cell-based; conditions: Staphylococcus aureus
Text: as §1, §2, §3, §4

[3] = tested on: S. aureus MS5952 three-step mutant; assay: MIC against stepwise QRDR mutants; format: cell-based; conditions: Staphylococcus aureus
Text: as §1, §2, §3, §4

[4] = tested on: S. aureus MS5952 two-step mutant; assay: MIC against stepwise QRDR mutants; format: cell-based; conditions: Staphylococcus aureus
Text: as §1, §2, §3, §4

S. aureus MS5952 = assay: MIC against stepwise QRDR mutants; format: cell-based; conditions: Staphylococcus aureus
Text: as §1, §2, §3, §4

E. faecium NCTC12202 = assay: MIC against Enterococcus bacteria; format: cell-based, Enterococcus faecium; conditions: Enterococcus faecium, NCTC 12202 / VRE
Experimental: (§5) Antibacterial activities of the compound J-131CP against Enterococcus bacteria (Enterococcus faecium and Enterococcus faecalis) were examined by the following methods.
as §2
(§6) Cell suspensions were prepared in the same manner as that of Test Example 1-1 described in the section of measurement of MIC in Test Example 1-1, except that the Enterococcus bacterium strains mentioned in Table 8 were used instead of Staphylococcus aureus, and MICs of the compound J-131CP and quinolones as control were determined for the strains in the same manner as that of Test Example 1-1 described in the section of measurement of MIC in Test Example 1-1. In Table 8, the amino acid substitution mutations in QRDR of the strains are underlined.

E. faecium RPR2 = assay: MIC against Enterococcus bacteria; format: cell-based, Enterococcus faecium
Experimental: as §5, §2, §6

E. faecalis 36-15722 = assay: MIC against Enterococcus bacteria; format: cell-based, Enterococcus faecalis; conditions: Enterococcus faecalis, 3615722
Experimental: as §5, §2, §6

S. pneumoniae BCLSP16 = assay: MIC against pneumococcus, CAMHB with 5 mass % LHB; format: cell-based; conditions: Streptococcus pneumoniae
Text: (§7) Antibacterial activity of the compound J-131CP against pneumococcus (Streptococcus pneumoniae) was examined by the following method. The S. pneumoniae strains used for this test belong to any one of the categories of penicillin-susceptible pneumococcus (penicillin-susceptible Streptococcus pneumoniae, PSSP), penicillin-intermediate pneumococcus (penicillin-intermediate Streptococcus pneumoniae, PISP), and penicillin-resistant pneumococcus (penicillin-resistant Streptococcus pneumoniae, PRSP).
(§8) The compound J-131CP and quinolones were prepared in the same manner as that of Test Example 1-1, except that CAMHB containing 5 mass % of lysed horse blood (LHB) was used for the dilution instead of CAMHB. The lysed horse blood was prepared by adding sterilized water to horse sterile defibered blood (produced by Nippon Bio-Supp. Center) at a ratio of 1:1, subjecting the mixture to freezing and thawing 5 times, then centrifuging the mixture twice at 10,000 rpm for 20 minutes, and filtering the supernatant through a filter.
(§9) The S. pneumoniae strains mentioned in Table 11 were each cultured overnight at 37° C. on a blood agar medium as stationary culture. The blood agar medium was prepared by adding 5 mass % ovine sterile defibered blood (produced by Nippon Bio-Supp. Center) to a heart infusion agar medium (produced by EIKEN CHEMICAL). Each S. pneumoniae strain cultured overnight at 37° C. as stationary culture was further subcultured overnight at 37° C. on fresh blood agar medium as stationary culture. After completion of the culture, cells of each pneumococcus strain were collected with a swab, and suspended in physiological saline, and the suspension was adjusted with physiological saline to show absorbance of 0.08 to 0.13 at 625 nm as measured with an absorbance meter (produced by Amersham), and further diluted 200 times with CAMHB containing 5 mass % LHB.
(§10) CAMHB containing the compound J-131CP at each concentration or each quinolone at each concentration, and 5 mass % LHB was added to each well of a 96-well plate in a volume of 50 μL/well, each cell suspension diluted 200 times was added to the well in a volume of 50 μL/well, and stationary culture was carried out overnight at 37° C.
(§11) After completion of the culture, whether the bacterium proliferated or not was determined on the basis of visually observed turbidity of the culture in the well, and MIC values (mg/L) of the compound J-131CP and the quinolones for the strains were determined. In Table 11, the amino acid substitution mutations in QRDR of the strains are underlined.

S. pneumoniae JHSP11 = assay: MIC against pneumococcus, CAMHB with 5 mass % LHB; format: cell-based; conditions: Streptococcus pneumoniae
Text: as §7, §8, §9, §10, §11

S. pneumoniae KBSP04 = assay: MIC against pneumococcus, CAMHB with 5 mass % LHB; format: cell-based; conditions: Streptococcus pneumoniae
Text: as §7, §8, §9, §10, §11

S. aureus Mu50 NR1-1 = assay: microbe, parasite or virus in culture; format: cell-based; conditions: Staphylococcus aureus, MU50NR11
Experimental: as §3

[5] = tested on: S. aureus MR5867 one-step mutant; assay: MIC against stepwise QRDR mutants; format: cell-based; conditions: Staphylococcus aureus
Experimental: (§12) The strains used for this test example are available from the inventors of the present invention.
as §3

[6] = tested on: S. aureus MS5952 one-step mutant; assay: MIC against stepwise QRDR mutants; format: cell-based; conditions: Staphylococcus aureus
Experimental: as §12, §3

[7] = E. faecium NCTC12202, VRE, quinolone-susceptible, read-out: MIC
[8] = S. pneumoniae KBSP04, PISP, read-out: MIC
[9] = E. faecalis 36-15722, quinolone-resistant, ParC 80Ile, GyrA 84Ile, read-out: MIC

With `O=C(O)c1cn(C2CC2)c2cc(N3CCNCC3)c(F)cc2c1=O` [CIP, ciprofloxacin] the MIC [1] was 128 µg/mL (≈ 386 µM), the MIC [2] was 32 µg/mL (≈ 96.6 µM) and the MIC (S. aureus MR5867) was 0.25 µg/mL (≈ 0.754 µM). The MIC [3] was 64 µg/mL (≈ 193 µM), the MIC [4] was 8 µg/mL (≈ 24.1 µM) and the MIC (S. aureus MS5952) was 0.25 µg/mL (≈ 0.754 µM). The MIC (E. faecium NCTC12202; [7]) was 0.5 µg/mL (≈ 1.51 µM), the MIC (E. faecium RPR2; Enterococcus faecium, RPR2) was over 128 µg/mL and the MIC (E. faecalis 36-15722) was 64 µg/mL (≈ 193 µM). The MIC (S. pneumoniae BCLSP16; S. pneumoniae BCLSP16, PSSP, ParC 79Tyr, GyrA 81Phe, read-out: MIC) was over 32 µg/mL, the MIC (S. pneumoniae JHSP11) was over 32 µg/mL and the MIC (S. pneumoniae KBSP04; [8]) was 0.5 µg/mL (≈ 1.51 µM).
`O=c1cc(CO)c2cc(F)c(-c3ccc(O)cc3)cc2n1C1CC1` [J-131CP, 1-cyclopropyl-6-fluoro-4-(hydroxymethyl)-7-(4-hydroxyphenyl)-1,2-dihydroquinolin-2-one] showed an MIC (S. aureus Mu50 NR1-1) of 0.25 µg/mL (≈ 0.768 µM), an MIC [1] of at most 0.06 µg/mL and an MIC [2] of over 0.06 µg/mL. For the same compound, the MIC (S. aureus MR5867) was 0.25 µg/mL (≈ 0.768 µM), the MIC [3] was 0.125 µg/mL (≈ 0.384 µM) and the MIC [4] was 0.125 µg/mL (≈ 0.384 µM). For the same compound, the MIC (S. aureus MS5952) was 0.25 µg/mL (≈ 0.768 µM), the MIC [5] was 0.25 µg/mL (≈ 0.768 µM) and the MIC [6] was 0.25 µg/mL (≈ 0.768 µM). It also gave an MIC (E. faecium NCTC12202) of 8 µg/mL (≈ 24.6 µM), an MIC (E. faecium RPR2; Enterococcus faecium, RPR2) of 4 µg/mL (≈ 12.3 µM) and an MIC (E. faecalis 36-15722; [9]) of 1 µg/mL (≈ 3.07 µM). For the same compound, the MIC (S. pneumoniae BCLSP16; BCLSP16) was 4 µg/mL (≈ 12.3 µM), the MIC (S. pneumoniae JHSP11) was 4 µg/mL (≈ 12.3 µM) and the MIC (S. pneumoniae KBSP04; KBSP04) was 4 µg/mL (≈ 12.3 µM).
Compound `C[C@H]1COc2c(N3CCN(C)CC3)c(F)cc3c(=O)c(C(=O)O)cn1c23` [LVX, levofloxacin] has an MIC (S. aureus Mu50 NR1-1) of 1 µg/mL (≈ 2.77 µM), an MIC [1] of 16 µg/mL (≈ 44.3 µM) and an MIC [2] of 8 µg/mL (≈ 22.1 µM). For the same compound, the MIC (S. aureus MR5867) was 0.125 µg/mL (≈ 0.346 µM), the MIC [3] was 32 µg/mL (≈ 88.6 µM) and the MIC [4] was 4 µg/mL (≈ 11.1 µM). For the same compound, the MIC (S. aureus MS5952) was 0.25 µg/mL (≈ 0.692 µM), the MIC [5] was 1 µg/mL (≈ 2.77 µM) and the MIC [6] was 0.5 µg/mL (≈ 1.38 µM). The MIC (E. faecium NCTC12202; [7]) was 1 µg/mL (≈ 2.77 µM), the MIC (E. faecium RPR2; E. faecium RPR2, quinolone-resistant, ParC 82Ile, GyrA 84Ile 88Lys) was over 128 µg/mL and the MIC (E. faecium RPR2; Enterococcus faecium, RPR2) was over 128 µg/mL. The MIC (E. faecalis 36-15722; [9]) was 36 µg/mL (≈ 99.6 µM), the MIC (S. pneumoniae BCLSP16; BCLSP16) was 32 µg/mL (≈ 88.6 µM) and the MIC (S. pneumoniae JHSP11) was 64 µg/mL (≈ 177 µM). It also gave an MIC (S. pneumoniae KBSP04; [8]) of 2 µg/mL (≈ 5.53 µM).
